Molecules are shown by their SMILES. Counter-ions that a name gives are not always drawn. Some results are limits rather than exact numbers.

The target in the first assay is T1, human EP1 receptor (Homo sapiens, UniProt P34995).
T1 construct: expressed in transfected cells; host or cells: CHO-K1
T1 sequence (P34995 1-402): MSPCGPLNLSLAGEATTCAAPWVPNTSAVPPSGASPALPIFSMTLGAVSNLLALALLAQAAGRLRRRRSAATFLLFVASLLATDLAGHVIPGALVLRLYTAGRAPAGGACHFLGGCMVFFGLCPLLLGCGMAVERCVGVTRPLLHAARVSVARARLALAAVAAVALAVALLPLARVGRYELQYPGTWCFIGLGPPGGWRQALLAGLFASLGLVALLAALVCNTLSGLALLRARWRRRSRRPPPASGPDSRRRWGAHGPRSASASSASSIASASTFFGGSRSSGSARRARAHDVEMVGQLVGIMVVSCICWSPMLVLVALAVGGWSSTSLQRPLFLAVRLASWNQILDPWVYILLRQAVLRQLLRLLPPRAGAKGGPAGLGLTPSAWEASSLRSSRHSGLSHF
The assay can be described thus: human EP1 calcium mobilisation assay. It is filed as cell-based. The note with it: negative logarithm10 of the antagonist dissociation constant; CHO-K1 cells, PGE2; free bases or sodium salts; averages of a number of experiments; read-out: functional pKi value (converted). How it is done:
Briefly, the antagonist properties of compounds are assessed by their ability to inhibit the mobilisation of intracellular calcium ([Ca^2+]i) in response to activation of EP1 or EP3 receptors by the natural agonist hormone prostaglandin E2 (PGE2). Increasing concentrations of antagonist reduce the amount of calcium that a given concentration of PGE2 can mobilise. The net effect is to displace the PGE2 concentration-effect curve to higher concentrations of PGE2. The amount of calcium produced is assessed using a calcium-sensitive fluorescent dye such as Fluo-4, AM and a suitable instrument such as a Fluorimetric Imaging Plate Reader (FLIPR). Increasing amounts of [Ca^2+]i produced by receptor activation increase the amount of fluorescence produced by the dye and give rise to an increasing signal. The signal may be detected using the FLIPR instrument and the data generated may be analysed with suitable curve-fitting software.
The human EP1 or EP3 calcium mobilisation assay (hereafter referred to as ‘the calcium assay’) utilises Chinese hamster ovary-K1 (CHO-K1) cells into which a stable (pCIN; BioTechniques 20 (1996): 102-110) vector containing either EP1 or EP3 cDNA has previously been transfected. Cells are cultured in suitable flasks containing culture medium such as DMEM:F-12 supplemented with 10% v/v foetal calf serum, 2 mM L-glutamine, 0.25 mg/ml geneticin, 100 μM flurbiprofen and 10 μg/ml puromycin.
For assay, cells are harvested using a proprietary reagent that dislodges cells such as Versene. Cells are re-suspended in a suitable quantity of fresh culture media for introduction into a 384-well plate. Following incubation for 24 hours at 37° C. the culture media is replaced with a medium containing Fluo-4 and the detergent pluronic acid, and a further incubation takes place. Concentrations of compounds are then added to the plate in order to construct concentration-effect curves. This may be performed on the FLIPR in order to assess the agonist properties of the compounds. Concentrations of PGE2 are then added to the plate in order to assess the antagonist properties of the compounds.
The data so generated may be analysed by means of a computerised curve-fitting routine. The concentration of compound that elicits a half-maximal inhibition of the calcium mobilisation induced by PGE2 (plC50) may then be estimated.
As to `Cc1cc(NC(=O)c2c(F)cc(CNC(C)C)cc2F)nn1Cc1cc(Cl)ccc1OCC(C)C` [Example 440, N-[1-({5-chloro-2-[(2-methylpropyl)oxy]phenyl}methyl)-5-methyl-1H-pyrazol-3-yl]-2,6-difluoro-4-{[(1-methylethyl)amino]methyl}benzamide hydrochloride], the Ki was greater than 1000 nM.
The same measure, in the same setting: the value for `Cc1cc(OC(=O)NCc2ccc(CNC(=O)OC(C)(C)C)cc2)nn1Cc1cc(Cl)ccc1OCc1ccccc1` [Example 59, 1-({5-Chloro-2-[(phenylmethyl)oxy]phenyl}methyl)-5-methyl-1H-pyrazol-3-yl 1,1-dimethylethyl (benzene-1,4-dildimethanediyl)biscarbamate] was greater than 1000 nM; that for `Cc1cc(-c2nc3nccnc3[nH]2)nn1Cc1cc(Cl)ccc1OCC(C)C` [Example 371, 2-[1-({5-Chloro-2-[(2-methylpropyl)oxy]phenyl}methyl)-5-methyl-1H-pyrazol-3-yl]-1H-imidazo[4,5-b]pyrazine hydrochloride] was greater than 1000 nM; that for `Cc1cc(-c2cnc(-c3ccncc3)[nH]2)nn1Cc1cc(Cl)ccc1OCc1ccccc1` [Example 483, 4-{4-[1-({5-Chloro-2-[(phenylmethyl)oxy]phenyl}methyl)-5-methyl-1H-pyrazol-3-yl]-1H-imidazol-2-yl}pyridine hydrochloride] was greater than 1000 nM.
Same read-out and setting: the value for `Cc1cc(N2CCN(Cc3ccccc3)CC2)nn1Cc1cc(Cl)ccc1OCc1ccccc1` [Example 288, 4-[1-({5-Chloro-2-[(phenylmethyl)oxy]phenyl}methyl)-5-methyl-1H-pyrazol-3-yl]-1-(phenylmethyl)piperazin-1-ium chloride] was greater than 1000 nM.

Another assay deals with T2, human prostanoid EP1 receptor (Homo sapiens, UniProt P34995).
T2 construct: expressed in transfected cells; host or cells: CHO-K1 (membrane fraction)
T2 sequence (P34995 1-402): T1 sequence (P34995 1-402)
Put plainly: Binding assay for the human prostanoid EP1 receptor (competition with [3H]-PGE2). The note with it: negative logarithm10 of the IC50; competition with [3H]-PGE2, CHO-K1 cell membranes; averages of a number of experiments; read-out: pIC50 value (converted). How it is done: Competition assay using [^3H]-PGE2.
Compound potencies are determined using a radioligand binding assay. In this assay compound potencies are determined from their ability to compete with tritiated prostaglandin E2 ([^3H]-PGE2) for binding to the human EP1 receptor.
This assay utilises Chinese hamster ovary-K1 (CHO-K1) cells into which a stable vector containing the EP1 cDNA has previously been transfected. Cells are cultured in suitable flasks containing culture medium such as DMEM:F-12 supplemented with 10% v/v foetal calf serum, 2 mM L-glutamine, 0.25 mg/ml geneticin, 10 μg/ml puromycin and 10 μM indomethacin.
Cells are detached from the culture flasks by incubation in calcium and magnesium free phosphate buffered saline containing 1 mM disodium ethylenediaminetetraacetic acid (Na2EDTA) and 10 μM indomethacin for 5 min. The cells are isolated by centrifugation at 250×g for 5mins and suspended in an ice cold buffer such as 50 mM Tris, 1 mM Na2EDTA, 140 mM NaCl, 10 μM indomethacin (pH 7.4). The cells are homogenised using a Polytron tissue disrupter (2×10s burst at full setting), centrifuged at 48,000×g for 20mins and the pellet containing the membrane fraction is washed (optional) three times by suspension and centrifugation at 48,000×g for 20mins. The final membrane pellet is suspended in an assay buffer such as 10 mM 2-[N-morpholino]ethanesulphonic acid, 1 mM Na2EDTA, 10 mM MgCl2 (pH 6). Aliquots are frozen at −80° C. until required.
For the binding assay the cell membranes, competing compounds and [^3H]-PGE2 (3 nM final assay concentration) are incubated in a final volume of 100 μl for 30 min at 30° C. All reagents are prepared in assay buffer. Reactions are terminated by rapid vacuum filtration over GF/B filters using a Brandell cell harvester. The filters are washed with ice cold assay buffer, dried and the radioactivity retained on the filters is measured by liquid scintillation counting in Packard TopCount scintillation counter.
The data are analysed using non linear curve fitting techniques to determine the concentration of compound producing 50% inhibition of specific binding (IC50).
For the compound `Cc1cc(-c2nc3ccc(N(C)C)cc3[nH]2)nn1Cc1cc(Cl)ccc1OCC(C)C` [Example 473, 2-[1-({5-Chloro-2-[(2-methylpropyl)oxy]phenyl}methyl)-5-methyl-1H-pyrazol-3-yl]-N,N-dimethyl-1H-benzimidazol-5-amine dihydrochloride], the IC50 was no more than 10 nM.
Still for that read-out and setting: the value for `CCN1CCN(Cc2ccc3[nH]c(-c4cnn(Cc5cc(Cl)ccc5OCC(C)C)c4C)nc3c2)CC1` [Example 382, 2-[1-({5-Chloro-2-[(2-methylpropyl)oxy]phenyl}meth-yl)-5-methyl-1H-pyrazol-4-yl]-5-[(4-ethyl-1-piperazinyl)methyl]-1H-benzimidazole trihydrochloride] was no more than 10 nM; that for `CCNCc1ccc(NC(=O)c2cc(C)n(Cc3cc(Cl)ccc3OCC(C)C)n2)cc1` [Example 393, 1-({5-Chloro-2-[(2-methylpropyl}oxy]phenyl}methyl)-N-{4-[(ethylamino)methyl]phenyl}-5-methyl-1H-pyrazole-3-carboxamide hydrochloride] was no more than 10 nM.
On to `Cc1cc(-c2nnn[nH]2)nn1Cc1cc(Cl)ccc1OCc1ccccc1` [Example 353, 5-[1-({5-Chloro-2-[(phenylmethyl)oxy]phenyl}methyl)-5-methyl-1H-pyrazol-3-yl]-1H-tetrazole], for which the IC50 was no more than 10 nM.
The same measure, in the same setting: the value for `Cc1cc(NC(=O)CC(C)(C)C)nn1Cc1cc(Cl)ccc1OCc1ccc(Cl)cc1F` [Example 136, N-{1-[(5-Chloro-2-{[(4-chloro-2-fluorophenyl)methyl]oxy}phenyl)methyl]-5-methyl-1H-pyrazol-3-yl}-3,3-dimethylbutanamide] was no more than 10 nM; that for `Cc1cc(NC(=O)CC(C)(C)C)nn1Cc1cc(Cl)ccc1OCc1ccccc1` [Example 109, N-[1-({5-Chloro-2-[(phenylmethyl)oxy]phenyl}methyl)-5-methyl-1H-pyrazol-3-yl]-3,3-dimethylbutanamide] was no more than 10 nM.
Same read-out and setting: in the case of `CNCc1ccc(NC(=O)c2cc(C)n(Cc3cc(Cl)ccc3OCC(C)C)n2)cc1` [Example 392, 1-({5-Chloro-2-[(2-methylpropyl)oxy]phenyl}methyl)-5-methyl-N-{4-[(methylamino)methyl]phenyl}-1H-pyrazole-3-carboxamide hydrochloride] it was no more than 10 nM.
The same measure, in the same setting: the value for `Cc1cc(NC(=O)Cc2ccccn2)nn1Cc1cc(Cl)ccc1OCc1ccc(Cl)cc1F` [Example 118, N-{1-[(5-Chloro-2-{[(4-chloro-2-fluorophenyl)methyl]oxy}phenyl)methyl]-5-methyl-1H-pyrazol-3-yl}-2-(2-pyridinyl)acetamide] was no more than 10 nM.
Turning to `Cc1cc(NC(=O)OC(C)(C)C)nn1Cc1cc(Br)ccc1OCc1ccc(Cl)cc1Cl` [Example 8, 1,1-Dimethylethyl {1-[(5-bromo-2-{[(2,4-dichlorophenyl)methyl]oxy}phenyl)methyl]-5-methyl-1H-pyrazol-3-yl}carbamate], the IC50 is no more than 10 nM.
Still for that read-out and setting: in the case of `Cc1cc(C(=O)Nc2ccc(CN(C)C)cc2)nn1Cc1cc(Cl)ccc1OCC(C)C` [Example 394, 1-({5-Chloro-2-[(2-methylpropyl)oxy]phenyl}methyl)-N-{4-[(dimethylamino)methyl]phenyl}-5-methyl-1H-pyrazole-3-carboxamide hydrochloride] it was no more than 10 nM; in that of `Cc1cc(NC(=O)CC(C)(C)C)nn1Cc1cc(Cl)ccc1OCc1ccc(F)cc1F` [Example 132, N-{1-[(5-Chloro-2-{[(2,4-difluorophenyl)methyl]oxy}phenyl)methyl]-5-methyl-1H-pyrazol-3-yl}-3,3-dimethylbutanamide], no more than 10 nM; in that of `Cc1cc(-c2nc3cc(CO)ccc3[nH]2)nn1Cc1cc(Cl)ccc1OCC(C)C` [Example 377, {2-[1-({5-Chloro-2-[(2-methylpropyl)oxy]phenyl}methyl)-5-methyl-1H-pyrazol-3-yl]-1H-benzimidazol-5-yl}methanol hydrochloride], no more than 10 nM.
Turning to `Cc1cc(C(=O)Nc2c(F)cccc2F)nn1Cc1cc(Br)ccc1OCc1ccccc1` [Example 313, 1-({5-Bromo-2-[(phenylmethyl)oxy]phenyl}methyl)-N-(2,6-difluorophenyl)-5-methyl-1H-pyrazole-3-carobxamide], the IC50 is no more than 10 nM.
For `Cc1cc(NC(=O)CC(C)C)nn1Cc1cc(Cl)ccc1OCC(C)C` [Example 76, N-[1-({5-Chloro-2-[(2-methylpropyl)oxy]phenyl}methyl)-5-methyl-1H-pyrazol-3-yl]-3-methylbutanamide], the IC50 was no more than 10 nM.
On the same count and under the same terms, the value for `Cc1noc(C)c1S(=O)(=O)NC(=O)c1cc(C)n(Cc2cc(Cl)ccc2OCc2ccccc2)n1` [Example 356, 1-({5-Chloro-2-[(phenylmethyl)oxy]phenyl}methyl)-N-[(3,5-dimethyl-4-isoxazolyl)sulfonyl]-5-methyl-1H-pyrazole-3-carboxamide] was no more than 10 nM.

These data come from patent publication US20090239845A1, “PYRAZOLE COMPOUNDS AS PROSTAGLANDIN RECEPTORS LIGANDS” (priority 2005, published 2009).
